Each molecule was assayed against T1, EHMT2 (Homo sapiens, UniProt Q96KQ7) (assay: MDA-MB-231 H3K9me2 in-cell Western assay (EHMT2 ICW)). Conditions: H3K9me2 in-cell Western, MDA-MB-231 cells; read-out: EHMT2 ICW (IC50 μM).
T1 construct: host or cells: MDA-MB-231
T1 sequence (Q96KQ7 1-1210): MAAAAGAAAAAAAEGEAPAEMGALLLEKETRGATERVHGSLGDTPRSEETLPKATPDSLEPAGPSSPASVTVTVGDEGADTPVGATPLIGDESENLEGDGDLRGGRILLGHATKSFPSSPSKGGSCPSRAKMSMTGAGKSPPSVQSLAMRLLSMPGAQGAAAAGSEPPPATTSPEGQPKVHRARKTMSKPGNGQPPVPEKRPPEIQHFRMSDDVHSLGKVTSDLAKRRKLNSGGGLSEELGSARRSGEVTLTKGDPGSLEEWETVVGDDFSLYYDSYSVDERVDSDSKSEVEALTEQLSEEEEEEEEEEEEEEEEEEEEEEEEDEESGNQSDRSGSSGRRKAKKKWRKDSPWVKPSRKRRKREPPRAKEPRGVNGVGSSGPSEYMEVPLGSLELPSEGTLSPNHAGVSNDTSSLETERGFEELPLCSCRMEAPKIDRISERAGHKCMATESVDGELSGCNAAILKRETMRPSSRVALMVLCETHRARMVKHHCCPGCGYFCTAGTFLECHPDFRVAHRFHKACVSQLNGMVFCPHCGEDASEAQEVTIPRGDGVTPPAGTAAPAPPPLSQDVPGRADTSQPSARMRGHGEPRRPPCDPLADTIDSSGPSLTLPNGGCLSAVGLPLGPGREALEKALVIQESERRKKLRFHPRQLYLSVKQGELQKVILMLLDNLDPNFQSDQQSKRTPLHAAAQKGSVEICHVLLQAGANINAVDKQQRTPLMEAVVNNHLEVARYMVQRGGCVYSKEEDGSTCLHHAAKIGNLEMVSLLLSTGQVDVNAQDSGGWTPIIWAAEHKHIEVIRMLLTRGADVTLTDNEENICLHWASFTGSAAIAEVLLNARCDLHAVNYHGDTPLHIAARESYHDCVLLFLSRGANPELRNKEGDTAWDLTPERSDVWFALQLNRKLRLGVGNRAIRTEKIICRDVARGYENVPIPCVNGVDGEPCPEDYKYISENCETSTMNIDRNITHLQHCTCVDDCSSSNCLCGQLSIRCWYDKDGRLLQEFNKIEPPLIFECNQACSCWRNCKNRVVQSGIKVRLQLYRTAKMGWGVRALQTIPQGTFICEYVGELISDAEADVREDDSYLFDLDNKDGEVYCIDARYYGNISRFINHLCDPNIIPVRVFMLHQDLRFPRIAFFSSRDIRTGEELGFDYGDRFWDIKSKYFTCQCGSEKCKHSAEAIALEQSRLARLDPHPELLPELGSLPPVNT
Assay type: cell-based
Outline: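 IC50 values came from a variable-slope four-parameter fit on triplicate wells, using % inhibition from the 800/700 nm infrared signal ratio (anti-H3K9me2 versus DRAQ5 DNA stain). Before fixation and immunostaining, MDA-MB-231 cells, 3,000 per well, were exposed to compound for 48 h at 37 °C.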

`CNc1ccnc(Nc2cc(OCCCN3CCCC3)c3cn[nH]c3c2)n1` [Compound 538, N^4-methyl-N^2-(4-(3-(pyrrolidin-1-yl)propoxy)-1H-indazol-6-yl)pyrimidine-2,4-diamine] and `CNc1ccnc(Nc2cc(OCCCN3CCCC3)c3[nH]ncc3c2)n1` [Compound 539] cannot be ordered by IC50: > 10 µM for the first, > 10 µM for the second.

`CNc1ccnc(NC2CCCNC2)n1` (stereo not drawn) [Compound 541, N^4-methyl-N^2-(piperidin-3-yl)pyrimidine-2,4-diamine] and `CNc1ccnc(NC2CCNCC2)n1` [Compound 542, N^4-methyl-N^2-(piperidin-4-yl)pyrimidine-2,4-diamine] cannot be ordered by IC50: > 10 µM for the first, > 10 µM for the second.

`CCCC1(Nc2nccc(NC)n2)CCCNC1` (stereo not drawn) [Compound 544] and `CCCC1(Nc2nccc(NC)n2)CCNCC1` [Compound 545] cannot be ordered by IC50: > 10 µM for the first, > 10 µM for the second.

`CNc1ccnc(NC2(C)CCCNC2)n1` (stereo not drawn) [Compound 546, N^4-methyl-N^2-(3-methylpiperidin-3-yl)pyrimidine-2,4-diamine] and `CNc1ccnc(NC2(C)CCNCC2)n1` [Compound 547, N^4-methyl-N^2-(4-methylpiperidin-4-yl)pyrimidine-2,4-diamine] cannot be ordered by IC50: > 10 µM for the first, > 10 µM for the second.

`CNc1ccnc(N[C@@H]2CC[C@H](N)C2)n1` [Compound 548, N^2-((1R,3S)-3-aminocyclopentyl)-N^4-methylpyrimidine-2,4-diamine] and `CCCCN1CCCC(C)(Nc2nccc(NC)n2)C1` (stereo not drawn) [Compound 549, N^2-(1-butyl-3-methylpiperidin-3-yl)-N^4-methylpyrimidine-2,4-diamine] cannot be ordered by IC50: > 10 µM for the first, > 10 µM for the second.

`CCCCN1CCC(C)(Nc2nccc(NC)n2)CC1` [Compound 550, N^2-(1-butyl-4-methylpiperidin-4-yl)-N^4-methylpyrimidine-2,4-diamine] and `CNc1cc(C)nc(Nc2ccc(OC)c(OCCCN3CC4(CC4)C3)c2)n1` [Compound 574] cannot be ordered by IC50: > 10 µM for the first, > 10 µM for the second.

`CNc1cc(C)nc(Nc2ccc(OC)c(OCCCN(C)C3CCC3)c2)n1` [Compound 551, N^2-(3-(3-(cyclobutyl(methyl)amino)propoxy)-4-methoxyphenyl)-N^4,6-dimethylpyrimidine-2,4-diamine] and `CNc1cc(C)nc(Nc2ccc(OC)c(OCC3CN(C4CCC4)C3)c2)n1` [Compound 576] fall in the same range of IC50: 0.1 to 1 µM for the first, 0.1 to 1 µM for the second.

`c1nc(NC2CCNCC2)ncc1OCCCN1CCCC1` [Compound 552] and `CN1CCC(COc2cnc(NC3CCNCC3)nc2)C1` (stereo not drawn) [Compound 555] cannot be ordered by IC50: > 10 µM for the first, > 10 µM for the second.

`CN1CCC(COc2cnc(NCC3CCOCC3)nc2)C1` (stereo not drawn) [Compound 553] and `c1nc(NC2CCOCC2)ncc1OCC1CCN(C2CC2)C1` (stereo not drawn) [Compound 557] cannot be ordered by IC50: > 10 µM for the first, > 10 µM for the second.

`CN1CCC(COc2ccc(NC3CCNCC3)nc2)C1` (stereo not drawn) [Compound 554] and `c1nc(NC2CCNCC2)ncc1OCC1CCN(C2CC2)C1` (stereo not drawn) [Compound 556] cannot be ordered by IC50: > 10 µM for the first, > 10 µM for the second.

`CNc1cc(C)nc(Nc2cnc(OC)c(OC[C@H]3CCN(C4CC4)C3)c2)n1` [Compound 558] and `CCN1CC[C@@H](COc2cc(Nc3nc(C)cc(NC)n3)cnc2OC)C1` [Compound 599] fall in the same range of IC50: 0.1 to 1 µM for the first, 0.1 to 1 µM for the second.

`CNc1cc(C)nc(Nc2ccc(OC)c(OCC3CN(C(C)C)C3)c2)n1` [Compound 559] and `CCN1CC[C@@H](COc2cc(Nc3nc(C)cc(NC)n3)ccc2OC)C1` [Compound 571] fall in the same range of IC50: 0.1 to 1 µM for the first, 0.1 to 1 µM for the second.

Compared with `CCN1CC(C(O)Oc2cc(Nc3nc(C)cc(NC)n3)ccc2OC)C1` (stereo not drawn) [Compound 560], `CCN1CC(C(C#N)Oc2cc(Nc3nc(C)cc(NC)n3)ccc2OC)C1` (stereo not drawn) [Compound 562] is higher in IC50: 0.1 to 1 µM for the first, 1 to 10 µM for the second.

First: CNc1cc(C)nc(Nc2ccc(OC)c(O)c2)n1 [Compound 561]
Second: CNc1cc(C)nc(Nc2ccc(OC)c(OC[C@@H]3CCNC3)c2)n1 [Compound 600]
The IC50 of the first is higher: > 10 µM for the first, < 0.1 µM for the second.

First: CNc1cc(C)nc(Nc2ccc(OC)c(OC[C@@H]3CCN(C4CCC4)C3)c2)n1 [Compound 563]
Second: CNc1cc(C)nc(Nc2ccc(OC)c(OCC3CN(C4CCCC4)C3)c2)n1 [Compound 577]
The IC50 of the first is lower: < 0.1 µM for the first, > 10 µM for the second.

`CCN1CC(COc2cc(Nc3nccc4[nH]ccc34)ncc2OC)C1` [Compound 564] and `CCN1CC(COc2cc(Nc3cccc4nncn34)ncc2OC)C1` [Compound 584] cannot be ordered by IC50: > 10 µM for the first, > 10 µM for the second.

First: COc1cc(Nc2nc(C)cc3[nH]ncc23)ncc1OCCCN1CCCC1 [Compound 565]
Second: COc1cnc(Nc2cc(C)nc3[nH]ncc23)cc1OCCCN1CCCC1 [Compound 596]
The IC50 of the first is lower: 1 to 10 µM for the first, > 10 µM for the second.

`CCN1CC(COc2cc(Nc3cc(NC)ncc3F)ncc2OC)C1` [Compound 566] and `CCN1CC(COc2cc(Nc3cc(NC)nc(C)c3F)ncc2OC)C1` [Compound 567] cannot be ordered by IC50: > 10 µM for the first, > 10 µM for the second.

Compared with `CNc1cc(C)nc(Nc2ccc(OC)c(OC[C@@H]3CCN(C4(C)CC4)C3)c2)n1` [Compound 568], `CNc1cc(C)nc(Nc2ccc(OC)c(OCC3CN(C(C)C)C3)c2)n1` [Compound 575] is higher in IC50: 0.1 to 1 µM for the first, 1 to 10 µM for the second. The first is the more potent here.

`CCN1CC(COc2cc(Nc3cc(NC)cc(C)n3)cnc2OC)C1` [Compound 569] and `CCc1cc(NC)nc(Nc2cnc(OC)c(OC[C@@H]3CCN(CC)C3)c2)n1` [Compound 601] fall in the same range of IC50: 0.1 to 1 µM for the first, 0.1 to 1 µM for the second.

`COc1ccc(NC2CCNCC2)cc1OCCCN1CCCC1` [Compound 572] and `COc1cc(NC2CCNCC2)ccc1OCCCN1CCCC1` [Compound 579] cannot be ordered by IC50: > 10 µM for the first, > 10 µM for the second.

`COc1ccc(NC2CCCNC2)cc1OCCCN1CCCC1` (stereo not drawn) [Compound 573] and `COc1cc(NC2CCCNC2)ccc1OCCCN1CCCC1` (stereo not drawn) [Compound 578] cannot be ordered by IC50: > 10 µM for the first, > 10 µM for the second.

First: CNc1cc(C)nc(Nc2ccc(OC)c(OCC3CN(C4CCOC4)C3)c2)n1 (stereo not drawn) [Compound 580]
Second: CCN1CC[C@@H](COc2cc(Nc3nc(C)cc(NC(C)C)n3)ccc2OC)C1 [Compound 602]
The IC50 of the first is higher: > 10 µM for the first, 0.1 to 1 µM for the second. The second is the more potent here.

`COc1cnc(Nc2cccc3[nH]ncc23)cc1OCCCN1CCCC1` [Compound 581] and `COc1cnc(Nc2ccnc3[nH]ncc23)cc1OCCCN1CCCC1` [Compound 583] cannot be ordered by IC50: > 10 µM for the first, > 10 µM for the second.

Compared with `COc1ccc(Nc2nccc3[nH]ncc23)cc1OCCCN1CCCC1` [Compound 582], `COc1ccc(Nc2nc(C)cc(NC(C)C)n2)cc1OCCCN1CCCC1` [Compound 603] is lower in IC50: > 10 µM for the first, 0.1 to 1 µM for the second. The second is the more potent here.

First: COc1cnc(Nc2cccc3nccn23)cc1OCCCN1CCCC1 [Compound 585]
Second: COc1cnc(Nc2cccc3cncn23)cc1OCCCN1CCCC1 [Compound 589]
The IC50 of the first is lower: 1 to 10 µM for the first, > 10 µM for the second. The first is the more potent here.

`COc1cnc(Nc2cccn3ccnc23)cc1OCCCN1CCCC1` [Compound 586] and `C/C=C/C(=O)Nc1cc(OCCCN2CCCC2)c(OC)cn1` [Compound 597] cannot be ordered by IC50: > 10 µM for the first, > 10 µM for the second.

`COc1cc2c(C3CCN(C)CC3)nc(N(C)C)nc2cc1OCCCN1CCCC1` [Compound 587] and `COc1ccc(Nc2nc(C)cc(NCC3CCOCC3)n2)cc1OCCCN1CCCC1` [Compound 590] fall in the same range of IC50: 0.1 to 1 µM for the first, 0.1 to 1 µM for the second.

Compared with `CC(C)N1CC(COc2cnc(NC3CCNCC3)nc2)C1` [Compound 588], `COc1ncc(Nc2nc(C)cc(NCC3CCOCC3)n2)cc1OC[C@@H]1CCN(C(C)C)C1` [Compound 592] is lower in IC50: > 10 µM for the first, 0.1 to 1 µM for the second. The second is the more potent here.

`COc1ncc(Nc2nc(C)cc(NCC3CCOCC3)n2)cc1OCCCN1CCCC1` [Compound 591] and `COc1ncc(Nc2nc(C)cc(NC(C)C)n2)cc1OCCCN1CCCC1` [Compound 593] fall in the same range of IC50: 0.1 to 1 µM for the first, 0.1 to 1 µM for the second.

Compared with `COc1ncc(Nc2nc(C)cc(NCC3CCOCC3)n2)cc1OC[C@@H]1CCN(C2CCC2)C1` [Compound 594], `C/C=C/C(=O)Nc1ccc(OC)c(OCCCN2CCCC2)c1` [Compound 598] is higher in IC50: 0.1 to 1 µM for the first, > 10 µM for the second.

Work on `COc1ncc(Nc2nc(C)cc(NCC3CCOCC3)n2)cc1OC[C@@H]1CCN(C2CCC2)C1` [Compound 595] yielded an IC50 of 0.1 to 1 µM.

— patent publication US20210198277A1, “AMINE-SUBSTITUTED ARYL OR HETEROARYL COMPOUNDS” (Epizyme, Inc., priority 2016, published 2021)
